{"source": "patent US20240358693A1", "about": "“METHODS OF TREATING PAIN” (Aisa Pharma, Inc., priority 2023, published 2024)", "key": {"Nav 1.7 sodium channel": {"target": "Nav 1.7 sodium channel (Homo sapiens, UniProt Q15858)", "sequence (Q15858 whole entry)": "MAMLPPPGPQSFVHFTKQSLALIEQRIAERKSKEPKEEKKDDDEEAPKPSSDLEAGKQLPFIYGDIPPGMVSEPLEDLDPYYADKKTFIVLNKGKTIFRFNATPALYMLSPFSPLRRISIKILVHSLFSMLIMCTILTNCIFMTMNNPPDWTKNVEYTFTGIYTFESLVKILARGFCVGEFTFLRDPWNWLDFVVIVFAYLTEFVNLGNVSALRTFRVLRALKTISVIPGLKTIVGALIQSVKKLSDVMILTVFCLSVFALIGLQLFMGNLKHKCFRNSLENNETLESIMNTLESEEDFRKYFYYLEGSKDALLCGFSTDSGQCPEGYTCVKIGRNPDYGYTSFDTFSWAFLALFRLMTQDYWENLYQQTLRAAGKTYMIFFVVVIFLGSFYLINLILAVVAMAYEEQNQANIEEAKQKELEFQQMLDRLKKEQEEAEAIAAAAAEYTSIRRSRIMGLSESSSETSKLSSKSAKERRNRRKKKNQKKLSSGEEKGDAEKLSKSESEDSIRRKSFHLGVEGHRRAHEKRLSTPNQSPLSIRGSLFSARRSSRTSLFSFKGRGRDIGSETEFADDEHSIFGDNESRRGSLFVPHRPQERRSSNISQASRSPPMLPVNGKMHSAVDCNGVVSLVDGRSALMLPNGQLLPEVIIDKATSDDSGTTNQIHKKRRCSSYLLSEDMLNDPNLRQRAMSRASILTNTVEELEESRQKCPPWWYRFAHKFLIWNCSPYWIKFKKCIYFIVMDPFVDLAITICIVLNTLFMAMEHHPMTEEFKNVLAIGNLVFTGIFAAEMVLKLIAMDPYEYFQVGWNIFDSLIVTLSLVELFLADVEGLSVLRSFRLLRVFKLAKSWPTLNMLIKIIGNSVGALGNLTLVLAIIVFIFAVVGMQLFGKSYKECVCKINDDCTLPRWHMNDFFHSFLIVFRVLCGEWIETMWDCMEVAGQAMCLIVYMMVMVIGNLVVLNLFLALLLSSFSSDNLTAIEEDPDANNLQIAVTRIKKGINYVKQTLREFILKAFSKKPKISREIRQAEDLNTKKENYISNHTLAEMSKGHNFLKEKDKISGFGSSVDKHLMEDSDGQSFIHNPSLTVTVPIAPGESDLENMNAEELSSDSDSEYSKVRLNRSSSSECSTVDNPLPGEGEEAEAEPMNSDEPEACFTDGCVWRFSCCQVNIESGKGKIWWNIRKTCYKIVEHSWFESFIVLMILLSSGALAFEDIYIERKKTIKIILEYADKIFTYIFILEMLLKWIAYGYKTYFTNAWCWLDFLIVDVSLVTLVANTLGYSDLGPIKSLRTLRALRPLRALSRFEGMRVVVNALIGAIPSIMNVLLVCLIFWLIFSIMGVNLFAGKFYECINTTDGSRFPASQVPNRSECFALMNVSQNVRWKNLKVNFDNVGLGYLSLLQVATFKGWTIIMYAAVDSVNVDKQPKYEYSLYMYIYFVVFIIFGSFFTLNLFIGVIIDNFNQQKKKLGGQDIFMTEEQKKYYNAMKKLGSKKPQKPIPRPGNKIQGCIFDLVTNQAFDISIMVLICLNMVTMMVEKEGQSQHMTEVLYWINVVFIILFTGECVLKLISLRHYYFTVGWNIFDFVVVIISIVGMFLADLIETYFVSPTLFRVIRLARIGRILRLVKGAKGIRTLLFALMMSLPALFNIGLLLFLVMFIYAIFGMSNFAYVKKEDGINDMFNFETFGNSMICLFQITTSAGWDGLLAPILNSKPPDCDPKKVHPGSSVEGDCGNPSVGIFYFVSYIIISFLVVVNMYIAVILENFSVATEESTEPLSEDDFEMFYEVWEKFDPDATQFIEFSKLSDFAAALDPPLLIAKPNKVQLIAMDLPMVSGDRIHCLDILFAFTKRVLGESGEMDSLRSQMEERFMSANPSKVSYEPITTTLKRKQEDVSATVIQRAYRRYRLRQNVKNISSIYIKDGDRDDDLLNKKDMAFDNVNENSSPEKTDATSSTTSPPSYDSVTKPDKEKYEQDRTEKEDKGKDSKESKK", "conditions": "20 mg dose of cilnidipine; cited from earlier work"}, "rat plasma proteins": {"test_system": "rat plasma proteins", "experiment": "In vitro equilibrium dialysis (RED) protein binding, rat plasma", "format": "in vitro ADME", "description": "(§1) Cilnidipine was tested by PsychoGenics using standard methodology in 96-well RED (Rapid Equilibrium Dialysis) plates from Thermo Fisher Scientific. Male Sprague-Dawley plasma and brain were obtained from BioIVT to provide the required protein matrix. Plasma was used undiluted, and brain homogenate was diluted 3 to 1 with PBS, pH 7.4. The protein matrix was spiked with the test compound dissolved in DMSO to achieve a 10 μM solution. Three chambers were used to allow for triplicate measures with a final DMSO concentration of <1% in each. The dialysate compartments of the 96-well dialysis chamber was loaded with PBS, pH 7.4 and the sample side was loaded with equal volume of the spiked protein matrix. The dialysis plate was then sealed and incubated at 37° C. for 4 h. After the incubation, samples were taken from each compartment. The buffer side was diluted with the appropriate matrix (plasma or brain homogenate) and the protein matrix side diluted with phosphate buffer. Resultant samples were then crashed in acetonitrile, centrifuged and the supernatant mixed with an aqueous solution providing samples for UPLC-MS/MS analysis. […] This control sample served as the basis for the determination of recovery. […] Samples were analyzed by UPLC-MS/MS using […] (MRM). The UPLC conditions consisted of a binary LC pump with autosampler, an InertSustain column (C18 column, 2.1×50 mm), utilizing gradient elution. The peak areas of the test compound in the buffer and test samples were used to calculate percent binding and recovery according to the following formulas: […]\n(§2) The recovery determination serves as an indicator of reliability of the calculated protein binding value.\n(§3) The characterization of protein binding is defined using the following ranges:\n(§4) • Low 0 to 50% • Moderate 50 to 90% • High 90 to 99% • Very High>99%"}, "[1]": {"experiment": "In vitro equilibrium dialysis (RED) protein binding, rat plasma", "format": "in vitro ADME", "conditions": "male, Sprague-Dawley, pH 7.4", "description": "as §1, §2, §3, §4"}, "[2]": {"conditions": "10 mg Cilnidipine, Healthy Volunteers, single oral dose; cited from earlier work"}, "[3]": {"conditions": "oral dosing; cited from earlier work"}, "[4]": {"test_system": "rat brain homogenate proteins", "experiment": "In vitro equilibrium dialysis (RED) protein binding, rat brain homogenate", "format": "in vitro ADME", "description": "as §1, §2, §3, §4"}, "[5]": {"experiment": "In vitro equilibrium dialysis (RED) protein binding, rat brain homogenate", "format": "in vitro ADME", "conditions": "male, Sprague-Dawley, rat, pH 7.4", "description": "as §1, §2, §3, §4"}, "plasma protein": {"test_system": "plasma protein", "conditions": "oral; cited from earlier work"}, "participants with SSc-RP": {"test_system": "participants with SSc-RP", "experiment": "Summary of data: dose response / overall response, Phase 2a study Part A", "format": "in vivo, human", "conditions": "20 mg dose group", "text": "Table S provides a summary of data:"}, "[6]": {"conditions": "male, Sprague-Dawley, plasma, 4 h, 10 μM, pH 7.4"}}}
{"smiles": "COCCOC(=O)C1=C(C)NC(C)=C(C(=O)OC/C=C/c2ccccc2)C1c1cccc([N+](=O)[O-])c1", "note": "(stereo not drawn) [Cilnidipine, cilnidipine]", "values": [{"measurement": "inhibition of Nav 1.7 compared to an 1800 mg dose of gabapentin", "setting": "Nav 1.7 sodium channel", "value": "> 6", "unit": "fold"}, {"measurement": "binding to plasma", "setting": "rat plasma proteins; male, Sprague-Dawley, 4 h, 10 μM, pH 7.4", "value": 100, "unit": "%"}, {"measurement": "Protein Binding (%)", "setting": "rat plasma proteins; [6]", "value": "100.0 ± 0.00", "unit": "%"}, {"measurement": "Unbound (%)", "setting": "rat plasma proteins; [6]", "value": "0.0 ± 0.00", "unit": "%"}, {"measurement": "stability in plasma", "setting": "rat plasma proteins; plasma", "value": "stable"}, {"measurement": "recovery at 4 h, 10 μM", "setting": "[1]", "value": "92.9 ± 4.69", "unit": "%"}, {"measurement": "CL/F, Mean", "setting": "[2]", "value": 304.7, "unit": "L/h"}, {"measurement": "time to achieve maximal plasma concentrations (Tmax)", "setting": "[3]", "value": "≤ 2", "unit": "h"}, {"measurement": "stability in brain", "setting": "[4]", "value": "stable"}, {"measurement": "binding to brain", "setting": "[4]; male, Sprague-Dawley, rat, 4 h, 10 μM, pH 7.4", "value": 99.2, "unit": "%"}, {"measurement": "Unbound (%)", "setting": "[4]; male, Sprague-Dawley, rat, brain homogenate, 4 h, 10 μM, pH 7.4", "value": "0.8 ± 0.03", "unit": "%"}, {"measurement": "fraction unbound at 4 h, 10 μM", "setting": "[5]; brain homogenate", "value": 0.008}, {"measurement": "recovery at 4 h, 10 μM", "setting": "[5]", "value": "93.7 ± 3.25", "unit": "%"}, {"measurement": "protein bound (protein binding in plasma) when given orally", "setting": "plasma protein", "value": 98, "unit": "%"}, {"measurement": "Efficacy seen: overall response", "setting": "participants with SSc-RP", "value": "shows best overall"}]}
